Data from PMC5717224, “New Hybrid Hydrazinyl Thiazole Substituted Chromones: As Potential α-Amylase Inhibitors and Radical (DPPH & ABTS) Scavengers” (Scientific Reports, 2017).

Legend:
[1] = DPPH free radical scavenging assay; conditions: absorbance 517 nm, 20 min incubation; read-out: DPPH radical scavenging activity IC50 ± SEM
Procedure: The ability of the sample to scavenge, 2-diphenyl-1-picrylhydrazyl (DPPH) free radicals was evaluated by standard method. The sample solutions were prepared in absolute alcohol, ranging from 0.01 mg/mL to 1 mg/mL. A total of 500 μL of sample was added with 500 µL of 2 µmol DPPH solution. After 20 min of incubation, the samples were placed in the dark at room temperature, the absorbance was taken at 517 nm. 500 µL of prepared DDPH solution and 500 µL of absolute alcohol were used as control. The similar procedure was repeated for ascorbic acid as standard[41],[42].
(§1) The percentage inhibition of radical scavenging activity was calculated as illustrated, %Inhibition=(AbsorbanceControl−AbsorbanceSample)/AbsorbanceControl×100

[2] = ABTS free radical cation scavenging assay; conditions: absorbance 734 nm, 30 min incubation; read-out: ABTS radical scavenging activity IC50 ± SEM
Procedure: The (ABTS+) 2,2ʹ-azino-bis(3-ethylbenzothiazoline-6-sulphonic acid) free radical cation scavenging ability of the compounds was determined by standard method. 7 mM ABTS was dissolved in distilled water and 2.45 mM potassium persulfate was added. The solution was kept in the dark for 12–16 h at room temperature. The sample solutions were prepared in absolute alcohol ranging from 0.01 mg/mL to 1 mg/mL. The samples were added with ABTS solution and incubated for 30 min. The absorbance was taken at 734 nm and the procedure was repeated for ascorbic acid as standard.
as §1

SMILES	IC50 [1] [µM]	IC50 [2] [µM]	melting point [°C]
O=C1O[C@H]([C@@H](O)CO)C(O)=C1O [Ascorbic acid, reference compound]	0.33 ± 0.18	0.53 ± 0.3	
O=Cc1coc2ccccc2c1=O [Compound 1, 4-Oxo-4H-chromene-3-carbaldehyde]	2.23 ± 0.79	3.74 ± 0.6	
Cc1ccc2occ(C=O)c(=O)c2c1 [Compound 2, 6-Methyl-4-oxo-4H-chromene-3-carbaldehyde]	2.23 ± 0.6	2.23 ± 0.06	173 to 175
NC(=S)N/N=C\c1coc2ccccc2c1=O [Compound 3, (Z)-2-((4-Oxo-4H-chromen-3-yl)methylene) hydrazinecarbothioamide]	1.91 ± 0.06	1.92 ± 0.09	240 to 242
Cc1ccc2occ(/C=N\NC(N)=S)c(=O)c2c1 [Compound 4, (Z)-2-((6-Methyl-4-oxo-4H-chromen-3-yl)methylene)hydrazinecarbothioamide]	1.15 ± 0.12	1.26 ± 0.1	245 to 247
O=c1c(/C=N\Nc2nc(-c3ccccc3)cs2)coc2ccccc12 [Compound 5, (Z)-3-((2-(4-Phenylthiazol-2-yl)hydrazono)methyl)-4H-chromen-4-one]	1.11 ± 0.15	1.08 ± 0.15	223 to 225
O=c1c(/C=N\Nc2nc(-c3cccc(O)c3)cs2)coc2ccccc12 [Compound 6, (Z)-3-((2-(4-(3-Hydroxyphenyl)thiazol-2-yl)hydrazono)methyl)-4H-chromen-4-one]	1.9 ± 0.03	1.892 ± 0.01	
O=c1c(/C=N\Nc2nc(-c3ccc(Br)cc3)cs2)coc2ccccc12 [Compound 7, (Z)-3-((2-(4-(4-Bromophenyl)thiazol-2-yl)hydrazono)methyl)-4H-chromen-4-one]	0.892 ± 0.09	0.83 ± 0.25	230 to 232
O=c1c(/C=N\Nc2nc(-c3cccc(Br)c3)cs2)coc2ccccc12 [Compound 8, (Z)-3-((2-(4-(3-Bromophenyl)thiazol-2-yl)hydrazono)methyl)-4H-chromen-4-one]	0.912 ± 0.23	0.914 ± 0.19	225 to 227
O=c1c(/C=N\Nc2nc(-c3ccc(Cl)c(Cl)c3)cs2)coc2ccccc12 [Compound 9, (Z)-3-((2-(4-(3,4-Dichlorophenyl)thiazol-2-yl)hydrazono)methyl)-4H-chromen-4-one]	0.314 ± 0.12	0.784 ± 0.12	245 to 247
O=c1c(/C=N\Nc2nc(-c3ccc(Cl)cc3Cl)cs2)coc2ccccc12 [Compound 10, (Z)-3-((2-(4-(2,4-Dichlorophenyl)thiazol-2-yl)hydrazono)methyl)-4H-chromen-4-one]	0.09 ± 0.17	0.677 ± 0.26	243 to 245
O=c1c(/C=N\Nc2nc(-c3ccc(Cl)cc3)cs2)coc2ccccc12 [Compound 11, (Z)-3-((2-(4-(4-Chlorophenyl)thiazol-2-yl)hydrazono)methyl)-4H-chromen-4-one]	0.922 ± 0.22	0.918 ± 0.14	239 to 241
O=c1c(/C=N\Nc2nc(-c3cccc(Cl)c3)cs2)coc2ccccc12 [Compound 12, (Z)-3-((2-(4-(3-Chlorophenyl)thiazol-2-yl)hydrazono)methyl)-4H-chromen-4-one]	1.05 ± 0.03	1.08 ± 0.08	228 to 230
O=c1c(/C=N\Nc2nc(-c3cccc([N+](=O)[O-])c3)cs2)coc2ccccc12 [Compound 13, (Z)-3-((2-(4-(3-Nitrophenyl)thiazol-2-yl)hydrazono)methyl)-4H-chromen-4-one]	1.75 ± 0.04	1.89 ± 0.05	235 to 237
N#Cc1ccc(-c2csc(N/N=C\c3coc4ccccc4c3=O)n2)cc1 [Compound 14, (Z)-4-(2-(2-((4-Oxo-4H-chromen-3-yl)methylene)hydrazinyl)thiazol-4-yl)benzonitrile]	1.29 ± 0.1	1.26 ± 0.07	225 to 227
O=c1c(/C=N\Nc2nc(-c3ccc(-c4ccccc4)cc3)cs2)coc2ccccc12 [Compound 15, (Z)-3-((2-(4-(Biphenyl-4-yl)thiazol-2-yl)hydrazono)methyl)-4H-chromen-4-one]	1.41 ± 0.05	1.64 ± 0.04	234 to 236
Cc1ccc2occ(/C=N\Nc3nc(-c4ccccc4)cs3)c(=O)c2c1 [Compound 16, (Z)-6-Methyl-3-((2-(4-phenylthiazol-2-yl)hydrazono)methyl)-4H-chromen-4-one]	1.37 ± 0.2	1.32 ± 0.2	235 to 237
Cc1ccc2occ(/C=N\Nc3nc(-c4cccc(O)c4)cs3)c(=O)c2c1 [Compound 17, (Z)-3-((2-(4-(3-Hydroxyphenyl)thiazol-2-yl)hydrazono)methyl)-6-methyl-4H-chromen-4-one]	1.34 ± 0.09	1.38 ± 0.05	237 to 239
Cc1ccc2occ(/C=N\Nc3nc(-c4ccccc4O)cs3)c(=O)c2c1 [Compound 18, (Z)-3-((2-(4-(2-Hydroxyphenyl)thiazol-2-yl)hydrazono)methyl)-6-methyl-4H-chromen-4-one]	1.66 ± 0.6	1.73 ± 0.05	230 to 232
Cc1ccc2occ(/C=N\Nc3nc(-c4cccc(Br)c4)cs3)c(=O)c2c1 [Compound 19, (Z)-3-((2-(4-(3-Bromophenyl)thiazol-2-yl)hydrazono)methyl)-6-methyl-4H-chromen-4-one]	0.781 ± 0.18	0.584 ± 0.07	
Cc1ccc2occ(/C=N\Nc3nc(-c4ccc(Br)cc4)cs3)c(=O)c2c1 [Compound 20, (Z)-3-((2-(4-(4-Bromophenyl)thiazol-2-yl)hydrazono)methyl)-6-methyl-4H-chromen-4-one]	0.611 ± 0.29	0.66 ± 0.16	235 to 237
Cc1ccc2occ(/C=N\Nc3nc(-c4ccc(Cl)cc4Cl)cs3)c(=O)c2c1 [Compound 21, (Z)-3-((2-(4-(2,4-Dichlorophenyl)thiazol-2-yl)hydrazono)methyl)-6-methyl-4H-chromen-4-one]	0.684 ± 0.13	0.71 ± 0.09	245 to 247
Cc1ccc2occ(/C=N\Nc3nc(-c4ccc(Cl)c(Cl)c4)cs3)c(=O)c2c1 [Compound 22, (Z)-3-((2-(4-(3,4-Dichlorophenyl)thiazol-2-yl)hydrazono)methyl)-6-methyl-4H-chromen-4-one]	0.688 ± 0.17	0.719 ± 0.1	246 to 248
Cc1ccc2occ(/C=N\Nc3nc(-c4ccc(Cl)cc4)cs3)c(=O)c2c1 [Compound 23, (Z)-3-((2-(4-(4-Chlorophenyl)thiazol-2-yl)hydrazono)methyl)-6-methyl-4H-chromen-4-one]	0.84 ± 0.1	0.82 ± 0.18	245 to 247
Cc1ccc2occ(/C=N\Nc3nc(-c4cccc(Cl)c4)cs3)c(=O)c2c1 [Compound 24, (Z)-3-((2-(4-(3-Chlorophenyl)thiazol-2-yl)hydrazono)methyl)-6-methyl-4H-chromen-4-one]	0.99 ± 0.12	1.02 ± 0.04	230 to 232
Cc1ccc2occ(/C=N\Nc3nc(-c4cccc([N+](=O)[O-])c4)cs3)c(=O)c2c1 [Compound 25, (Z)-6-Methyl-3-((2-(4-(3-nitrophenyl)thiazol-2-yl)hydrazono)methyl)-4H-chromen-4-one]	1.31 ± 0.06	1.3 ± 0.11	240 to 242
Cc1ccc2occ(/C=N\Nc3nc(-c4ccc(C#N)cc4)cs3)c(=O)c2c1 [Compound 26, (Z)-4-(2-(2-((6-Methyl-4-oxo-4H-chromen-3-yl)methylene)hydrazinyl)thiazol-4-yl)benzonitrile]	1.29 ± 0.13	1.28 ± 0.04	238 to 240
Cc1ccc2occ(/C=N\Nc3nc(-c4ccc(-c5ccccc5)cc4)cs3)c(=O)c2c1 [Compound 27, (Z)-3-((2-(4-(Biphenyl-4-yl)thiazol-2-yl)hydrazono)methyl)-6-methyl-4H-chromen-4-one]	1.34 ± 0.07	1.29 ± 0.07	235 to 237
